Results on 23 molecules are retold here after patent US9260439B2, “Dihydropyrrolopyrimidine derivatives” (PFIZER INC., priority 2014, dated 2016).

This test concerns the target truncated PI3Kα (p110α/iSH2 p85α) (Homo sapiens (Human), UniProt P42336). In words: PI3KA_Act fluorescence polarization kinase assay (Ki). It is filed as biochemical. Particulars: 1 mM ATP. A digest of the protocol:
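Ki values result from fitting fluorescence polarization signals to the Morrison equation for tight-binding competitive inhibitors. The detector was GST-Grp1 PH domain with TAMRA-PIP3, read after a 30 min room-temperature reaction of 0.5 nM truncated PI3Kα and 30 μM PIP2 at pH 7.4 in HEPES/NaCl/MgCl2/DTT/CHAPS buffer. Compounds were tested as 12-point 3-fold dilutions from 3 μM.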

The structures appear in SMILES notation. Where only a bound is given, the exact number is not on record here.

Chain of truncated PI3Kα (p110α/iSH2 p85α) (P42336 whole entry, the tested form may be a part): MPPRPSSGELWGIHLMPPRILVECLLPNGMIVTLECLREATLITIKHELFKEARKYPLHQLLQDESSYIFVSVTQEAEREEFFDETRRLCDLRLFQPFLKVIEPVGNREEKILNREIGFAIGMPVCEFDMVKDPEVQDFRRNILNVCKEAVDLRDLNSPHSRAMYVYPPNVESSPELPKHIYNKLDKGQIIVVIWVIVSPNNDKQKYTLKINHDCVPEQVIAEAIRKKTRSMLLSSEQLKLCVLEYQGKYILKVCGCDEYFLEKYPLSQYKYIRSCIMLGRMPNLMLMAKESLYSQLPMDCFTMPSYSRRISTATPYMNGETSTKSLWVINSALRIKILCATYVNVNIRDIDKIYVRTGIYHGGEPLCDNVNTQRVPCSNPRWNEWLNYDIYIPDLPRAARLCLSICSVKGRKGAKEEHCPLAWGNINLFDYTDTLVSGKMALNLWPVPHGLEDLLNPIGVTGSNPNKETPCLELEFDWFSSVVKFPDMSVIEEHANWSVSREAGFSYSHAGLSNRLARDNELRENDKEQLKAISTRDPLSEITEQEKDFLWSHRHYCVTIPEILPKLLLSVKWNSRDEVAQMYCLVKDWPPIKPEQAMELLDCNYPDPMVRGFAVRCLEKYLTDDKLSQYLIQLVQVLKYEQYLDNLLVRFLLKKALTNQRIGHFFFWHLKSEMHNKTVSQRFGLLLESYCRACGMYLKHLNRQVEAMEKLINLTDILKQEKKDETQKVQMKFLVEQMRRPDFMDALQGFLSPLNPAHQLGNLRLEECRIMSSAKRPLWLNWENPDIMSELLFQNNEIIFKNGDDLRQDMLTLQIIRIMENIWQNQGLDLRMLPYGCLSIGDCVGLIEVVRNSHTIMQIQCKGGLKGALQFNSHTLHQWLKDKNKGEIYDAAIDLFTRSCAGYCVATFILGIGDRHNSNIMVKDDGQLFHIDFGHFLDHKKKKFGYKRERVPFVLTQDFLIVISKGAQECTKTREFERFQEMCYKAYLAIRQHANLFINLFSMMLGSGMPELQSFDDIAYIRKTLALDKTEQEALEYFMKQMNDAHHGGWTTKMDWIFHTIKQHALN

With `C[C@]1(N2CCc3c(-c4cnc(N)nc4)nc(N4CCOCC4)nc32)CCN(C(=O)C2(O)CCC2)C1` [Example 343, {(3S)-3-[4-(2-aminopyrimidin-5-yl)-2-(morpholin-4-yl)-5,6-dihydro-7H-pyrrolo[2,3-d]pyrimidin-7-yl]-3-methylpyrrolidin-1-yl}(1-hydroxycyclobutyl) methanone], the “PI3KA_Act Ki” value was found to be 0.089 nM.

With `C[C@@]1(N2CCc3c(-c4cnc(N)nc4)nc(N4CCOCC4)nc32)CCN(C(=O)C2(O)CCC2)C1` [Example 344, {(3R)-3-[4-(2-aminopyrimidin-5-yl)-2-(morpholin-4-yl)-5,6-dihydro-7H-pyrrolo[2,3-d]pyrimidin-7-yl]-3-methylpyrrolidin-1-yl}(1-hydroxycyclobutyl) methanone], the “PI3KA_Act Ki” value was 0.098 nM.

For `C[C@]1(N2CCc3c(-c4cnc(N)nc4)nc(N4CCOCC4)nc32)CCN(C(=O)C2CC(O)C2)C1` (stereo partly drawn) [Example 345, {(3S)-3-[4-(2-aminopyrimidin-5-yl)-2-(morpholin-4-yl)-5,6-dihydro-7H-pyrrolo[2,3-d]pyrimidin-7-yl]-3-methylpyrrolidin-1-yl}(3-hydroxycyclobutyl) methanone], the “PI3KA_Act Ki” value is on record as 0.028 nM.

As to `C[C@]1(N2CCc3c(-c4cnc(N)nc4)nc(N4CCOCC4)nc32)CCN(C(=O)C2(N)CCC2)C1` [Example 346, (1-aminocyclobutyl) {(3S)-3-[4-(2-aminopyrimidin-5-yl)-2-(morpholin-4-yl)-5,6-dihydro-7H-pyrrolo[2,3-d]pyrimidin-7-yl]-3-methylpyrrolidin-1-yl}methanone], the “PI3KA_Act Ki” value came out at 0.125 nM.

For `C[C@]1(N2CCc3c(-c4cnc(N)nc4)nc(N4CCOCC4)nc32)CCN(C(=O)[C@@H]2CCN2)C1.Cl` [Example 347, {(3S)-3-[4-(2-aminopyrimidin-5-yl)-2-(morpholin-4-yl)-5,6-dihydro-7H-pyrrolo[2,3-d]pyrimidin-7-yl]-3-methylpyrrolidin-1-yl}[(2S)-azetidin-2-yl]methanone hydrochloride], the “PI3KA_Act Ki” value is given as 0.075 nM.

`C[C@]1(N2CCc3c(-c4cnc(N)nc4)nc(N4CCOCC4)nc32)CCN(C(=O)C2CCN2)C1.Cl` (stereo partly drawn) [Example 348, {(3S)-3-[4-(2-aminopyrimidin-5-yl)-2-(morpholin-4-yl)-5,6-dihydro-7H-pyrrolo[2,3-d]pyrimidin-7-yl]-3-methylpyrrolidin-1-yl}(azetidin-2-yl)methanone hydrochloride]: the “PI3KA_Act Ki” value is recorded as 0.066 nM.

In the case of `C[C@]1(N2CCc3c(-c4cnc(N)nc4)nc(N4CCOCC4)nc32)CCN(C(=O)C2CNC2)C1.Cl` [Example 349, {(3S)-3-[4-(2-aminopyrimidin-5-yl)-2-(morpholin-4-yl)-5,6-dihydro-7H-pyrrolo[2,3-d]pyrimidin-7-yl]-3-methylpyrrolidin-1-yl}(azetidin-3-yl)methanone hydrochloride], the “PI3KA_Act Ki” value is recorded as 0.026 nM.

On to `C[C@]1(N2CCc3c(-c4cnc(N)nc4)nc(N4CCOCC4)nc32)CCN(C(=O)[C@]2(C)CCN2)C1.Cl` [Example 350, {(3S)-3-[4-(2-aminopyrimidin-5-yl)-2-(morpholin-4-yl)-5,6-dihydro-7H-pyrrolo[2,3-d]pyrimidin-7-yl]-3-methylpyrrolidin-1-yl}[(2S)-2-methylazetidin-2-yl]methanone hydrochloride], for which the “PI3KA_Act Ki” value came out at 0.045 nM.

As to `C[C@]1(N2CCc3c(-c4cnc(N)nc4)nc(N4CCOCC4)nc32)CCN(C(=O)[C@@]2(C)CCN2)C1` [Example 351, {(3S)-3-[4-(2-aminopyrimidin-5-yl)-2-(morpholin-4-yl)-5,6-dihydro-7H-pyrrolo[2,3-d]pyrimidin-7-yl]-3-methylpyrrolidin-1-yl}[(2R)-2-methylazetidin-2-yl]methanone], the “PI3KA_Act Ki” value amounted to 0.059 nM.

In the case of `C[C@]1(N2CCc3c(-c4cnc(N)nc4)nc(N4CCOCC4)nc32)CCN(C(=O)C2(F)CNC2)C1.Cl` [Example 352, {(3S)-3-[4-(2-aminopyrimidin-5-yl)-2-(morpholin-4-yl)-5,6-dihydro-7H-pyrrolo[2,3-d]pyrimidin-7-yl]-3-methylpyrrolidin-1-yl}(3-fluoroazetidin-3-yl)methanone hydrochloride], the “PI3KA_Act Ki” value was less than 0.018 nM.

Turning to `CN1CC[C@@H]1C(=O)N1CC[C@](C)(N2CCc3c(-c4cnc(N)nc4)nc(N4CCOCC4)nc32)C1` [Example 353, {(3S)-3-[4-(2-aminopyrimidin-5-yl)-2-(morpholin-4-yl)-5,6-dihydro-7H-pyrrolo[2,3-d]pyrimidin-7-yl]-3-methylpyrrolidin-1-yl}[(2R)-1-methylazetidin-2-yl]methanone], the “PI3KA_Act Ki” value worked out at 0.078 nM.

For `CN1CC[C@H]1C(=O)N1CC[C@](C)(N2CCc3c(-c4cnc(N)nc4)nc(N4CCOCC4)nc32)C1` [Example 354, {(3S)-3-[4-(2-aminopyrimidin-5-yl)-2-(morpholin-4-yl)-5,6-dihydro-7H-pyrrolo[2,3-d]pyrimidin-7-yl]-3-methylpyrrolidin-1-yl}[(2S)-1-methylazetidin-2-yl]methanone], the “PI3KA_Act Ki” value was determined as 0.049 nM.

Regarding `CN1CCC1(C)C(=O)N1CC[C@](C)(N2CCc3c(-c4cnc(N)nc4)nc(N4CCOCC4)nc32)C1` (stereo partly drawn) [Example 355, {(3S)-3-[4-(2-aminopyrimidin-5-yl)-2-(morpholin-4-yl)-5,6-dihydro-7H-pyrrolo[2,3-d]pyrimidin-7-yl]-3-methylpyrrolidin-1-yl}(1,2-dimethylazetidin-2-yl)methanone], the “PI3KA_Act Ki” value is 0.102 nM.

As for `CN1CC(C(=O)N2CC[C@](C)(N3CCc4c(-c5cnc(N)nc5)nc(N5CCOCC5)nc43)C2)C1` [Example 356, {(3S)-3-[4-(2-aminopyrimidin-5-yl)-2-(morpholin-4-yl)-5,6-dihydro-7H-pyrrolo[2,3-d]pyrimidin-7-yl]-3-methylpyrrolidin-1-yl}(1-methylazetidin-3-yl)methanone], the “PI3KA_Act Ki” value was 0.037 nM.

Turning to `CC(C)(C)OC(=O)N1CC[C@H]1C(=O)N1CC[C@@](C)(N2CCc3c(-c4cnc(N)nc4)nc(N4CCOCC4)nc32)C1` [Example 357, tert-butyl (2S)-2-({(3R)-3-[4-(2-aminopyrimidin-5-yl)-2-(morpholin-4-yl)-5,6-dihydro-7H-pyrrolo[2,3-d]pyrimidin-7-yl]-3-methylpyrrolidin-1-yl}carbonyl)azetidine-1-carboxylate], the “PI3KA_Act Ki” value turned out to be 0.144 nM.

`CC(C)(C)OC(=O)N1CCC1C(=O)N1CC[C@](C)(N2CCc3c(-c4cnc(N)nc4)nc(N4CCOCC4)nc32)C1` (stereo partly drawn) [Example 358, tert-butyl 2-({(3S)-3-[4-(2-aminopyrimidin-5-yl)-2-(morpholin-4-yl)-5,6-dihydro-7H-pyrrolo[2,3-d]pyrimidin-7-yl]-3-methylpyrrolidin-1-yl}carbonyl)azetidine-1-carboxylate]: the “PI3KA_Act Ki” value was 0.171 nM.

Consider `CC(C)(C)OC(=O)N1CC(F)(C(=O)N2CC[C@](C)(N3CCc4c(-c5cnc(N)nc5)nc(N5CCOCC5)nc43)C2)C1` [Example 359, tert-butyl 3-({(3S)-3-[4-(2-aminopyrimidin-5-yl)-2-(morpholin-4-yl)-5,6-dihydro-7H-pyrrolo[2,3-d]pyrimidin-7-yl]-3-methylpyrrolidin-1-yl}carbonyl)-3-fluoroazetidine-1-carboxylate], for which the “PI3KA_Act Ki” value turned out to be 0.128 nM.

For the molecule `C[C@]1(N2CCc3c(-c4cnc(N)nc4)nc(N4CCOCC4)nc32)CCN(C(=O)N2CCC2)C1` [Example 360, {(3S)-3-[4-(2-aminopyrimidin-5-yl)-2-(morpholin-4-yl)-5,6-dihydro-7H-pyrrolo[2,3-d]pyrimidin-7-yl]-3-methylpyrrolidin-1-yl}(azetidin-1-yl)methanone], the “PI3KA_Act Ki” value is reported as less than 0.018 nM.

For the molecule `C[C@@]1(N2CCc3c(-c4cnc(N)nc4)nc(N4CCOCC4)nc32)CCN(C(=O)N2CCC2)C1` [Example 361, {(3R)-3-[4-(2-aminopyrimidin-5-yl)-2-(morpholin-4-yl)-5,6-dihydro-7H-pyrrolo[2,3-d]pyrimidin-7-yl]-3-methylpyrrolidin-1-yl}(azetidin-1-yl)methanone], the “PI3KA_Act Ki” value stood at 0.078 nM.

As for `CC1(C)CN[C@@H]1C(=O)N1CC[C@](C)(N2CCc3c(-c4cnc(N)nc4)nc(N4CCOCC4)nc32)C1.Cl` [Example 362, {(3S)-3-[4-(2-aminopyrimidin-5-yl)-2-(morpholin-4-yl)-5,6-dihydro-7H-pyrrolo[2,3-d]pyrimidin-7-yl]-3-methylpyrrolidin-1-yl}[(2S)-3,3-dimethylazetidin-2-yl]methanone hydrochloride], the “PI3KA_Act Ki” value turned out to be 0.041 nM.

For `C[C@]1(N2CCc3c(-c4cnc(N)nc4)nc(N4CCOCC4)nc32)CCN(C(=O)N2CC(C#N)C2)C1` [Example 363, 1-({(3S)-3-[4-(2-aminopyrimidin-5-yl)-2-(morpholin-4-yl)-5,6-dihydro-7H-pyrrolo[2,3-d]pyrimidin-7-yl]-3-methylpyrrolidin-1-yl}carbonyl)azetidine-3-carbonitrile], the “PI3KA_Act Ki” value is given as 0.039 nM.

For the molecule `C[C@@]1(N2CCc3c(-c4cnc(N)nc4)nc(N4CCOCC4)nc32)CCN(C(=O)N2CC(C#N)C2)C1` [Example 364, 1-({(3R)-3-[4-(2-aminopyrimidin-5-yl)-2-(morpholin-4-yl)-5,6-dihydro-7H-pyrrolo[2,3-d]pyrimidin-7-yl]-3-methylpyrrolidin-1-yl}carbonyl)azetidine-3-carbonitrile], the “PI3KA_Act Ki” value is 0.262 nM.

For `C[C@@]1(N2CCc3c(-c4cnc(N)nc4)nc(N4CCOCC4)nc32)CCN(C(=O)N2CC(O)C2)C1` [Example 365, {(3R)-3-[4-(2-aminopyrimidin-5-yl)-2-(morpholin-4-yl)-5,6-dihydro-7H-pyrrolo[2,3-d]pyrimidin-7-yl]-3-methylpyrrolidin-1-yl}(3-hydroxyazetidin-1-yl)methanone], the “PI3KA_Act Ki” value was found to be 0.063 nM.
